Data taken from US12171874B2 (OrphAI Therapeutics Inc., priority 2013, dated 2024).
Entries after “also recorded” stand apart in the source; their conditions may differ.

Experiments:
[1] = 2012 meta-analysis; cited from earlier work
[2] = Determination of rapamycin in lung and blood following oropharyngeal aspiration (OPA) and oral gavage (LC-MS/MS); assay type: in vivo, male C57BL/6 mice; details: 1 mg/kg; for Blood concentration of rapamycin: OPA, 72 h post-dose
Protocol: Source (for oral gavage): Rapamune Oral® (Pfizer) for oral administration, Lot No.: MWGT, Expiration: July 2016.
Animals: Male C57BL/6 mice, approximately 8 weeks of age, from Charles River Laboratories, Inc, Raleigh, NC. Animals were fed Certified Purina Rodent Chow #5002 and were furnished tap water ad libitum. The analysis of each feed batch for nutrient levels and possible contaminants was performed by the supplier, examined by the Study Director, and maintained in the study records. […] Mice were housed (one per cage) in polycarbonate cages with stainless steel bar lids accommodating a water bottle. Cage sizes are approximately 11.5″×7.5″×5″ high (70 sq. in. floor space) for mice. Contact bedding was Sani-Chips hardwood chips (P. J. Murphy Forest Products Co.; Montville, NJ). Mice were quarantined for a period of 5 days before use on a study. A veterinarian or qualified designee examined the animals prior to their release from quarantine. Temperature and relative humidity in RTI animal rooms were continuously monitored, controlled, and recorded using an automated system (Siebe/Barber-Colman Network 8000 System with Revision 4.4.1 for Signal® software [Siebe Environmental Controls (SEC)/Barber-Colman Company; Loves Park, IL]). The target environmental ranges were 64-79° F. (18° C.-26° C.) for temperature and 30-70% relative humidity, with a 12-h light cycle per day. At the end of the in-life phase, the mice were euthanized by overexposure to carbon dioxide. […]
Dosing: Each animal was weighed prior to dosing to determine the amount of dose to be administered. […] The dose administered to each animal was determined from the weight of the full syringe minus that of the empty syringe. The dosing time was recorded. […]
The concentrations of standards were arranged so that each standard came from an alternate stock standard. A six-point calibration curve, each made in triplicate, was employed for analyte quantitation. […] The concentration range determined was from 1-2000 ng/mL in blood and 2-2000 ng/mL in lung homogenate. […]

[3] = test system: phosphorylated S6 protein; details: lung tissue concentration
Text: In the mouse strain used (C57bl/6), the mouse airway and alveolar epithelial cells have constitutively active (phosphorylated, “p”) S6 protein.

[4] = test system: renal angiomyolipomas; details: oral, up to 2 years, 16 patients; cited from earlier work

**Q.** With `CO[C@H]1C[C@@H]2CC[C@@H](C)[C@@](O)(O2)C(=O)C(=O)N2CCCC[C@H]2C(=O)O[C@H]([C@H](C)C[C@@H]2CC[C@@H](OC(=O)C(C)(CO)CO)[C@H](OC)C2)CC(=O)[C@H](C)/C=C(\C)[C@@H](O)[C@@H](OC)C(=O)[C@H](C)C[C@H](C)/C=C/C=C/C=C/1C` [temsirolimus] as the compound, how does the “Cancer patients that may experience mild grade (pulmonary) toxicity” value [1] read?
**A.** 10%

**Q.** Which “Cancer patients that may experience mild grade (pulmonary) toxicity” value [1] does the source give for `CO[C@H]1C[C@@H]2CC[C@@H](C)[C@@](O)(O2)C(=O)C(=O)N2CCCC[C@H]2C(=O)O[C@H]([C@H](C)C[C@@H]2CC[C@@H](OCCO)[C@H](OC)C2)CC(=O)[C@H](C)/C=C(\C)[C@@H](O)[C@@H](OC)C(=O)[C@H](C)C[C@H](C)/C=C/C=C/C=C/1C` [everolimus] here?
**A.** 10%

**Q.** With `CO[C@H]1C[C@@H]2CC[C@@H](C)[C@@](O)(O2)C(=O)C(=O)N2CCCC[C@H]2C(=O)O[C@H]([C@H](C)C[C@@H]2CC[C@@H](O)[C@H](OC)C2)CC(=O)[C@H](C)/C=C(\C)[C@@H](O)[C@@H](OC)C(=O)[C@H](C)C[C@H](C)/C=C/C=C/C=C/1C` [Rapamycin, (3S,6R,7E,9R,10R,12R,14S,15E,17E,19E,21S,23S,26R,27R,34aS)-9,10,12,13,-14,21,22,23,24,25,26,27,32,33,34,34a-hexadecahydro-9,27-dihydroxy-3-[(1R)-2-[(1S,3R,4R)-4-hydroxy-3-methoxycyclohexyl]-1-methylethyl]-10,21-dimethox-y-6,8,12,14,20,26-hexamethyl-23,27-epoxy-3H-pyrido[2,1-c][1,4]oxaazacyclohentriacontine-1,5,11,28,29(4H,6H,31H)-pentone] as the compound, how does the “Blood concentration of rapamycin” value ([2]; group) read?
**A.** below the limit of quantitation; also recorded: undetectable

**Q.** And the “Blood concentration of rapamycin” value ([2]; individual animal)?
**A.** <ELOQ

**Q.** And the “Lung concentration of rapamycin” value ([2]; gavage (Rapamune Oral), 1 h post-dose, individual animal)?
**A.** <LOQ

**Q.** And the “Drug in the lung that substantially abrogates mTOR signaling as measured by pS6” value [3]?
**A.** about 70 ng/g

**Q.** What about the Renal angiomyolipoma response [4] of the same compound?
**A.** sustained regression
